Results: patent publication US6015878A, “Antitumor agents isolated from intestinal mucosa, a method for their isolation and their application” (Alexandrov, Christo Alexandrov, priority 1995, dated 2000)
Ends that are not written are not given here.

Tests used:
Assay type in all cases: in vivo
intestines [1] = experiment: Incorporation of H^3-thymidine (DNA synthesis) in intestines of treated mice; conditions: for Incorporation H^3-thymidine: 7 hours after treatment of mice, in comparison with control animals not treated with IEGs
Protocol: (§1) Laboratory experiments were carried out to accomplish the third object concerning the effect of preparations on biosynthetic processes which was assessed by the incorporation of H^3 -thymidine (DNA-synthesis) and C^14 -uridine (RNA synthesis) in various regions of the intestines of the mice tested. The preparation's morphogenic effect was assessed by the enterocytic cellularity and DNA concentration in the same regions.
(§2) Each fraction obtained in purifying IEG (see Object 1) was tested on mice. 3 mg of the peptide content of the fraction was administered intraperitoneally simultaneously with the testing reagent (isotope); the animals were then killed and investigated 7 hours afterwards. […] Both IEGs have a suppressive effect on DNA synthesis especially in the lower regions of intestines: IEG1 by 45%, IEG2 --by 48%. […] In this way it switches on the chain of molecular mechanisms by which it acts on the smooth muscle motility.

intestines [2] = experiment: Incorporation of C^14-uridine (RNA synthesis) in intestines of treated mice; conditions: 7 hours after treatment of mice, in comparison with control animals not treated with IEGs
Protocol: as §1, §2

intestines [3] = experiment: DNA concentration in intestines of treated mice (morphogenic effect); conditions: 7 hours after treatment of mice, in comparison with control animals not treated with IEGs
Protocol: as §1, §2

intestines [4] = experiment: Enterocytic cellularity in intestines of treated mice (morphogenic effect); conditions: for Cellularity: 7 hours after treatment of mice, in comparison with control animals not treated with IEGs
Protocol: as §1, §2

[5] = Middle section of the intestines

Arg-Arg-Asp-Asp-His-Arg-NH2 (RRDDHR-NH2) [IEG2, ID; NO]
Incorporation H^3-thymidine (intestines [1]; Duodenum): 77% | Incorporation H^3-thymidine (intestines [1]; Ileum): 55% | Incorporation H^3-thymidine (intestines [1]; Jejunum): 88% | Incorporation H^3-thymidine (intestines [1]; [5]): 48% | suppressive effect on DNA synthesis (intestines [1]; lower regions of intestines, mice, 3 mg intraperitoneally, 7 hours): 48% | Incorporation C^14-uridine (intestines [2]; Duodenum): 78% | Incorporation C^14-uridine (intestines [2]; Ileum): 74% | Incorporation C^14-uridine (intestines [2]; Jejunum): 78% | Incorporation C^14-uridine (intestines [2]; [5]): 74% | DNA concentration (intestines [3]; Duodenum): 68% | DNA concentration (intestines [3]; Ileum): 77% | DNA concentration (intestines [3]; Jejunum): 97% | DNA concentration (intestines [3]; [5]): 62% | Cellularity (intestines [4]; Duodenum): 88% | Cellularity (intestines [4]; Ileum): 85% | Cellularity (intestines [4]; Jejunum): 75% | Cellularity (intestines [4]; [5]): 83% | Average reduction in enterocyte number (intestines [4]; mice, 3 mg peptide content intraperitoneally, 7 hours): 20%
